Measurements published in patent US6982348B2, “Aminoethanol derivatives” (Takeda Pharmaceutical Company Limited, priority 2001, dated 2006).

Tests used:
human CETP [1] = target: T1, human CETP (Homo sapiens, UniProt P11597); assay: Assay of cholesteryl ester transfer protein inhibitory activity, standard measurement system; assay type: biochemical; conditions: BODIPY-CE-ME donor, VLDL-LDL acceptor, reaction at 37° C. for 30 min.
T1 sequence (P11597 18-493): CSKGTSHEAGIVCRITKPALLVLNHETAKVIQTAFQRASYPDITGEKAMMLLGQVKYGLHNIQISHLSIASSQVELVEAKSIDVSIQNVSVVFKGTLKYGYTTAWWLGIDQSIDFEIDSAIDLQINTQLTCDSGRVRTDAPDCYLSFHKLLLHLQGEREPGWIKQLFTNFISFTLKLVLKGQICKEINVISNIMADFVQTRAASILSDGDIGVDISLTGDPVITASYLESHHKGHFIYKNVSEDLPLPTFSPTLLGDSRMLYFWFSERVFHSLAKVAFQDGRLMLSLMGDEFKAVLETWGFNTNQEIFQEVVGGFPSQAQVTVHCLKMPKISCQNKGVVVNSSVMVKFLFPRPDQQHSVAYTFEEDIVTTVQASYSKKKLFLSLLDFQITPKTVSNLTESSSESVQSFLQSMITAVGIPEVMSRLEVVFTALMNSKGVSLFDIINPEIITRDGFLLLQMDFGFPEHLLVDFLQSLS
Method: (§1) Assay of Cholesteryl Ester Transfer Protein Inhibitory Activity
(§2) Fresh rabbit serum was adjusted with KBr to the density of (1.063 g/ml), and the fractions (VLDL-LDL, density<1.063 g/ml) floated by ultra-centrifugation operation (SW41—Ti, 40,000 rpm, 18 hrs., 4° C., Beckman model L8-55) were collected, subjected to dialysis against 0.15 M NaCl-10 mM Tris-HCl, pH 7.4 (TBS), sterilized by filtration through a filter and preserved at 4° C.
(§3) A solution of BODIPY-CE (0.6 mg) in chloroform was added to egg PC (phosphatidylcholine) ([…]) and triolein (2 mg), and after dissolution, the lipid was air dried under a nitrogen gas reflux and the solvent was removed under high vacuum. To this lipid was added an apo HDL solution (7.5 ml) obtained by defatting human HDL (1.063<d<1.21) with chloroform-methanol (2:1, v/v), dissolving in 6 M urea-containing TBS and dialyzing against TBS, and the mixture was subjected to sonication (BRANSON SONIFIRE CELL DISRUPTOR 200, dial 6, 5 min×4) to give BOBIPY-CE-ME. After centrifugation (CENTRIPREP 10), it was sterilized by filtration through a filter and preserved at 4° C.
(§4) The test compound (20% DMSO solution, 5 μl), TS (75 μl), acceptor lipoprotein (VLDL-LDL, 20 μl) and partially purified human CETP (25 μl) were mixed and incubated at 37° C. for 30 min. BODIPY-CE-ME (25 μl) was added (total 150 μl) and a transfer reaction was started. After reaction at 37° C. for 30 min., fluorescence intensity was measured at Ex. 490 nm/Em. 530 nm. The CETP inhibitory activity (% inhibition) was calculated by the following formula. [formula] 4) 50% Human Plasma-Containing Measurement System
(§5) The IC50 value was determined as a concentration showing 50% inhibition by plotting the logarithm of the concentration of test compound and % inhibition.

human CETP [2] = target: T1, human CETP; assay: Assay of cholesteryl ester transfer protein inhibitory activity, 50% human plasma-containing measurement system; assay type: biochemical; conditions: BODIPY-CE-ME donor, VLDL-LDL acceptor, reaction at 37° C. for 60 min.
Method: as §1, §2, §3
as §4, with “5 μl), human plasma (75 μl),” for “5 μl), TS (75 μl),”, “C. for 60 min., fluorescence” for “C. for 30 min., fluorescence”, “formula. [formula]” for “formula. [formula] 4) 50% Human Plasma-Containing Measurement System”
as §5

Row | Compound | IC50 (human CETP [1]) | melting point | IC50 (human CETP [2])
1 | O=C(N[C@H](Cc1ccc(C(F)(F)F)cc1)[C@@H](O)c1ccc(F)cc1)c1cccc2c1C=CCCC2 (racemic) [Example 29, N-[(1RS,2SR)-2-(4-fluorophenyl)-2-hydroxy-1-[4-(trifluoromethyl)benzyl]ethyl]-6,7-dihydro-5H-benzo[a]cycloheptene-1-carboxamide] | 0.12 µM | 197 to 198 °C | 
2 | O=C(N[C@H](Cc1ccc(C(F)(F)F)cc1)[C@@H](O)c1ccc(F)cc1)c1ccc(F)c2ccccc12 (racemic) [Example 30, 4-fluoro-N-((1RS,2SR)-2-(4-fluorophenyl)-2-hydroxy-1-((4-(trifluoromethyl)phenyl)methyl)ethyl)-1-naphthalenecarboxamide] | 0.3 µM | 210 to 211 °C | 2.5 µM
3 | CC(C)c1ccc(C[C@@H](NC(=O)c2cccc3c2C=CCCC3)[C@@H](O)c2ccc(F)cc2)cc1 (racemic) [Example 155, N-[(1RS,2SR)-2-(4-fluorophenyl)-2-hydroxy-1-(4-isopropylbenzyl)ethyl]-6,7-dihydro-5H-benzo[a]cycloheptene-1-carboxamide] | 0.095 µM | 168 to 169 °C | 2.1 µM
4 | O=C(N[C@H](Cc1ccc(C(F)(F)F)cc1)[C@@H](O)c1cccc(F)c1)c1cccc2c1C=CCCC2 (racemic) [Example 177, N-((1RS,2SR)-2-(3-fluorophenyl)-2-hydroxy-1-((4-(trifluoromethyl)phenyl)methyl)ethyl)-6,7-dihydro-5H-benzo[a]cycloheptene-1-carboxamide] | 0.091 µM | 151 to 152 °C | 
5 | O=C(N[C@H](Cc1ccc(C(F)(F)F)cc1)[C@@H](O)c1ccc(Oc2ccccc2)cc1)c1cccc2c1C=CCCC2 (racemic) [Example 210, N-((1RS,2SR)-2-hydroxy-2-(4-phenoxyphenyl)-1-((4-(trifluoromethyl)phenyl)methyl)ethyl)-6,7-dihydro-5H-benzo[a]cycloheptene-1-carboxamide] | 0.088 µM |  | 1.4 µM
6 | O=C(N[C@H](Cc1cccc(OC(F)(F)C(F)F)c1)[C@@H](O)c1cccc(F)n1)c1cccc2c1C=CCCC2 (racemic) [Example 222, N-((1RS,2RS)-2-(6-fluoropyridin-2-yl)-2-hydroxy-1-((3-(1,1,2,2-tetrafluoroethoxy)phenyl)methyl)ethyl)-6,7-dihydro-5H-benzo[a]cycloheptene-1-carboxamide] | 0.079 µM | 151 to 152 °C | 
7 | O=C(NC(Cc1ccc(C(F)(F)F)cc1)C(O)c1ccc(F)cc1)c1cccc2ccccc12 (stereo not drawn) [226(+)-form] | 0.4 µM |  | 4.2 µM
8 | O=C(NC(Cc1ccc(C(F)(F)F)cc1)C(O)c1ccc(F)cc1)c1ccc(F)c2ccccc12 (stereo not drawn) [227(+)-form] | 0.21 µM |  | 1.7 µM

Molecules with a lower IC50 (human CETP [1]), results first:

Row | IC50 (human CETP [1]) | melting point | IC50 (human CETP [2]) | Compound
9 | 0.07 µM | 189 to 190 °C | 1 µM | O=C(N[C@H](Cc1cccc(OC(F)(F)C(F)F)c1)[C@@H](O)c1ccc(F)cc1)c1cccc2c1C=CCCCC2 (racemic) [Example 126, N-[(1RS,2SR)-2-(4-fluorophenyl)-2-hydroxy-1-[3-(1,1,2,2-tetrafluoroethoxy)benzyl]ethyl]-5,6,7,8-tetrahydrobenzo[a]cyclooctene-1-carboxamide]
10 | 0.056 µM | 116 to 117 °C | 0.66 µM | CCc1cc(Oc2ccc([C@H](O)[C@@H](Cc3cccc(OC(F)(F)C(F)F)c3)NC(=O)c3cccc4c3C=CCCC4)cc2)ccc1Cl (racemic) [Example 218, N-((1RS,2SR)-2-(4-((4-chloro-3-ethylphenyl)oxy)phenyl)-2-hydroxy-1-((3-((1,1,2,2-tetrafluoroethyl)oxy)phenyl)methyl)ethyl)-6,7-dihydro-5H-benzo[a]cycloheptene-1-carboxamide]
11 | 0.051 µM | 186 to 187 °C | 2 µM | O=C(N[C@H](Cc1cccc(OC(F)(F)C(F)F)c1)[C@@H](O)c1ccc(F)cc1)c1ccc(F)c2ccccc12 (racemic) [Example 125, 4-fluoro-N-[(1RS,2SR)-2-(4-fluorophenyl)-2-hydroxy-1-[3-(1,1,2,2-tetrafluoroethoxy)benzyl]ethyl]naphthalene-1-carboxamide]
12 | 0.046 µM | 194 to 195 °C | 2.4 µM | O=C(N[C@H](Cc1cccc(OC(F)(F)C(F)F)c1)[C@@H](O)c1ccc(F)cc1)c1cccc2c1CCCCC2 (racemic) [Example 124, N-[(1RS,2SR)-2-(4-fluorophenyl)-2-hydroxy-1-[3-(1,1,2,2-tetrafluoroethoxy)benzyl]ethyl]-6,7,8,9-tetrahydro-5H-benzo[a]cycloheptene-1-carboxamide]
13 | 0.04 µM | 182 to 183 °C | 0.7 µM | O=C(N[C@H](Cc1cccc(OC(F)(F)C(F)F)c1)[C@@H](O)c1ccc(Cl)cc1)c1cccc2c1C=CCCC2 (racemic) [Example 216, N-[(1RS,2SR)-2-(4-chlorophenyl)-2-hydroxy-1-[3-(1,1,2,2-tetrafluoroethoxy)benzyl]ethyl]-6,7-dihydro-5H-benzo[a]cycloheptene-1-carboxamide]
14 | 0.035 µM | 165 to 166 °C | 0.95 µM | O=C(N[C@H](Cc1cccc(OC(F)(F)C(F)F)c1)[C@@H](O)c1ccc(F)cc1)c1cccc2c1C=CCC2 (racemic) [Example 123, N-[(1RS,2SR)-2-(4-fluorophenyl)-2-hydroxy-1-[3-(1,1,2,2-tetrafluoroethoxy)benzyl]ethyl]-5,6-dihydronaphthalene-1-carboxamide]
15 | 0.03 µM | 159 to 160 °C | 1.4 µM | O=C(N[C@H](Cc1cccc(OC(F)(F)C(F)F)c1)[C@@H](O)c1ccnc(F)c1)c1cccc2c1C=CCCC2 (racemic) [Example 220, N-((1RS,2SR)-2-(2-fluoropyridin-4-yl)-2-hydroxy-1-((3-(1,1,2,2-tetrafluoroethoxy)phenyl)methyl)ethyl)-6,7-dihydro-5H-benzo[a]cycloheptene-1-carboxamide]
16 | 0.03 µM |  | 0.99 µM | O=C(NC(Cc1cccc(OC(F)(F)C(F)F)c1)C(O)c1ccc(F)cc1)c1ccc(F)c2ccccc12 (stereo not drawn) [228(+)-form]
17 | 0.015 µM | 176 to 177 °C | 0.49 µM | O=C(N[C@H](Cc1cccc(OC(F)(F)C(F)F)c1)[C@@H](O)c1ccc(F)cc1)c1cccc2c1C=CCCC2 (racemic) [Example 122, N-[(1RS,2SR)-2-(4-fluorophenyl)-2-hydroxy-1-[3-(1,1,2,2-tetrafluoroethoxy)benzyl]ethyl]-6,7-dihydro-5H-benzo[a]cycloheptene-1-carboxamide]
18 | 0.0086 µM |  | 0.24 µM | O=C(NC(Cc1cccc(OC(F)(F)C(F)F)c1)C(O)c1ccc(F)cc1)c1cccc2c1C=CCCC2 (stereo not drawn) [229(+)-form]
19 | 0.0084 µM |  | 0.08 µM | O=C(N[C@H](Cc1cccc(OC(F)(F)C(F)F)c1)[C@@H](O)c1ccc(Oc2ccccc2)cc1)c1cccc2c1C=CCCC2 (racemic) [Example 217, N-((1RS,2SR)-2-hydroxy-2-(4-(phenyloxy)phenyl)-1-((3-((1,1,2,2-tetrafluoroethyl)oxy)phenyl)methyl)ethyl)-6,7-dihydro-5H-benzo[a]cycloheptene-1-carboxamide]
